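Compound exposure: 48 hours, 5 concentrations, 96-well plates. Here, GI50 denotes the concentration required for 50% inhibition of growth.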 The source made the active and inactive calls. Rule as the data show it: active = GI50 up to about 1.1 µM and inactive = higher.
Experiments:
Assay in all cases: NCI-60 cell line screen, 48 h
[1] = test system: NCI-H460
[2] = test system: OVCAR-8
[3] = test system: OVCAR-3
[4] = test system: IGROV-1
[5] = test system: SN12C
[6] = test system: MDA-MB-435
[7] = test system: UO-31
[8] = test system: MCF7
[9] = test system: K562
[10] = test system: 786-0
[11] = test system: SK-MEL-28
[12] = test system: NCI-H226
[13] = test system: SNB-75
[14] = test system: HCT-15
[15] = test system: M14
[16] = test system: DU-145
[17] = test system: OVCAR-4
[18] = test system: NCI-H522
[19] = test system: Malme-3M

Structure (SMILES)	GI50 [1]	GI50 [2]	GI50 [3]	GI50 [4]	GI50 [5]	GI50 [6]	GI50 [7]	GI50 [8]	GI50 [9]	GI50 [10]	GI50 [11]	GI50 [12]	GI50 [13]	GI50 [14] [µM]	GI50 [15]	GI50 [16]	GI50 [17]	GI50 [18]	GI50 [19]
Nc1nc(N)c2nn(-c3ccc(C(=O)O)cc3)nc2n1	> 100 µM (inactive)	> 100 µM (inactive)	> 100 µM (inactive)	> 100 µM (inactive)	> 100 µM (inactive)	> 100 µM (inactive)	> 100 µM (inactive)	> 100 µM (inactive)	> 100 µM (inactive)	> 100 µM (inactive)	> 100 µM (inactive)	> 100 µM (inactive)	> 100 µM (inactive)	> 100	> 100 µM (inactive)	> 100 µM (inactive)	> 100 µM (inactive)	> 100 µM (inactive)	–
CN(C)c1ccc(C=c2c3ccccc3n3c2cc(-c2ccc(Cl)cc2)[n+]3C)cc1	0.263 µM (active)	0.147 µM (active)	0.295 µM (active)	–	0.254 µM (active)	0.207 µM (active)	0.904 µM (active)	0.0953 µM (active)	< 0.0462 µM (active)	0.267 µM (active)	0.519 µM (active)	0.573 µM (active)	0.307 µM (active)	1.47	0.301 µM (active)	0.177 µM (active)	0.748 µM (active)	0.0577 µM (active)	0.333 µM (active)
CCCCCCCCCCCCCCCCNc1nc(=O)n(C2CC(O)C(COP(=O)(O)OC3CC(n4cc(F)c(=O)[nH]c4=O)OC3CO)O2)cc1F (stereo not drawn)	–	0.296 µM (active)	10 µM (inactive)	1.95 µM (inactive)	0.264 µM (active)	13.1 µM (inactive)	0.257 µM (active)	< 0.01 µM (active)	1.41 µM (inactive)	0.416 µM (active)	14.2 µM (inactive)	9.51 µM (inactive)	4.98 µM (inactive)	3.18	0.687 µM (active)	0.222 µM (active)	92.3 µM (inactive)	8.75 µM (inactive)	12.1 µM (inactive)
O=c1[nH]nc(Cc2ccccc2)n1/N=C\c1ccccc1	> 100 µM (inactive)	90.4 µM (inactive)	> 100 µM (inactive)	84.7 µM (inactive)	> 100 µM (inactive)	> 100 µM (inactive)	> 100 µM (inactive)	> 100 µM (inactive)	> 100 µM (inactive)	71.3 µM (inactive)	> 100 µM (inactive)	> 100 µM (inactive)	32.3 µM (inactive)	> 100	–	> 100 µM (inactive)	> 100 µM (inactive)	> 100 µM (inactive)	> 100 µM (inactive)
CC(C)(O)C1CC(=O)C(C)(C2C(O)CC3(C)C4CC=C5C(CCC(O)C5(C)C)C4(C)C(=O)CC23C)O1 (stereo not drawn)	> 100 µM (inactive)	> 100 µM (inactive)	> 100 µM (inactive)	> 100 µM (inactive)	> 100 µM (inactive)	> 100 µM (inactive)	> 100 µM (inactive)	> 100 µM (inactive)	> 100 µM (inactive)	> 100 µM (inactive)	> 100 µM (inactive)	> 100 µM (inactive)	42.2 µM (inactive)	> 100	> 100 µM (inactive)	> 100 µM (inactive)	> 100 µM (inactive)	> 100 µM (inactive)	–
Cn1cnc(N)c(N=O)c1=O	> 10 µM (inactive)	> 10 µM (inactive)	> 10 µM (inactive)	> 10 µM (inactive)	> 10 µM (inactive)	> 10 µM (inactive)	–	> 10 µM (inactive)	> 10 µM (inactive)	> 10 µM (inactive)	> 10 µM (inactive)	> 10 µM (inactive)	> 10 µM (inactive)	> 10	> 10 µM (inactive)	> 10 µM (inactive)	> 10 µM (inactive)	> 10 µM (inactive)	> 10 µM (inactive)
CC1(C)CN=C(Nc2ccc(F)cc2)S1	–	> 100 µM (inactive)	> 100 µM (inactive)	> 100 µM (inactive)	> 100 µM (inactive)	> 100 µM (inactive)	> 100 µM (inactive)	> 100 µM (inactive)	> 100 µM (inactive)	> 100 µM (inactive)	> 100 µM (inactive)	> 100 µM (inactive)	> 100 µM (inactive)	> 100	> 100 µM (inactive)	> 100 µM (inactive)	> 100 µM (inactive)	> 100 µM (inactive)	> 100 µM (inactive)
CN(C)c1nc(N(C)C)nc(N(C)C23CC4CC(CC(C4)C2)C3)n1	53.1 µM (inactive)	32.1 µM (inactive)	17.1 µM (inactive)	17.1 µM (inactive)	–	40.2 µM (inactive)	61.1 µM (inactive)	37.6 µM (inactive)	49.3 µM (inactive)	40.5 µM (inactive)	46.5 µM (inactive)	32.6 µM (inactive)	24.3 µM (inactive)	> 100	33.3 µM (inactive)	41.1 µM (inactive)	44.8 µM (inactive)	16.9 µM (inactive)	33 µM (inactive)
c1cc2c3c(c1)[C@@H]1O[C@@H]1c1cccc(c1-3)[C@@H]1O[C@H]21	–	17.9 µM (inactive)	–	–	19.7 µM (inactive)	14.3 µM (inactive)	14.6 µM (inactive)	10.1 µM (inactive)	17.7 µM (inactive)	20 µM (inactive)	15.7 µM (inactive)	> 100 µM (inactive)	20.9 µM (inactive)	17.5	15 µM (inactive)	18 µM (inactive)	19.8 µM (inactive)	14.8 µM (inactive)	15.4 µM (inactive)
CC(C)C/C=C/C1=NN(c2cccc(S(=O)(=O)O)c2)C2(C1)SCC(=O)N2c1nc2ccccc2s1 (stereo not drawn)	38 µM (inactive)	66.2 µM (inactive)	–	36.8 µM (inactive)	31.9 µM (inactive)	31.1 µM (inactive)	50.1 µM (inactive)	30.5 µM (inactive)	51.4 µM (inactive)	21.3 µM (inactive)	> 100 µM (inactive)	29.2 µM (inactive)	97.5 µM (inactive)	91.6	> 100 µM (inactive)	44.2 µM (inactive)	61.7 µM (inactive)	19.8 µM (inactive)	93.1 µM (inactive)
C=C(C)CC1=C(C(=S)NCCO[Si](C)(C)C(C)(C)C)C(OCC)(OCC)C1=O	–	40.6 µM (inactive)	–	15.9 µM (inactive)	19.7 µM (inactive)	16.9 µM (inactive)	18.5 µM (inactive)	9.66 µM (inactive)	–	16.6 µM (inactive)	15.5 µM (inactive)	> 10 µM (inactive)	14.7 µM (inactive)	8.93	18.3 µM (inactive)	23 µM (inactive)	12.9 µM (inactive)	13.7 µM (inactive)	12.7 µM (inactive)
CSc1ncc2c(n1)-c1ccccc1OC2NC(C)(C)C (stereo not drawn)	> 100 µM (inactive)	> 100 µM (inactive)	> 100 µM (inactive)	–	> 100 µM (inactive)	> 100 µM (inactive)	63.4 µM (inactive)	36.5 µM (inactive)	> 100 µM (inactive)	> 100 µM (inactive)	> 100 µM (inactive)	31.4 µM (inactive)	27.2 µM (inactive)	> 100	> 100 µM (inactive)	> 100 µM (inactive)	> 100 µM (inactive)	27.8 µM (inactive)	> 100 µM (inactive)
CC(C)C(C=O)C(O)(C(F)(F)F)C(F)(F)F (stereo not drawn)	> 100 µM (inactive)	> 100 µM (inactive)	> 100 µM (inactive)	> 10 µM (inactive)	–	> 100 µM (inactive)	> 100 µM (inactive)	> 100 µM (inactive)	> 100 µM (inactive)	> 100 µM (inactive)	> 100 µM (inactive)	> 100 µM (inactive)	11.3 µM (inactive)	> 100	> 100 µM (inactive)	> 100 µM (inactive)	> 100 µM (inactive)	> 100 µM (inactive)	> 100 µM (inactive)
CC(C)(C)OC(=O)NCC(CNC(=O)OC(C)(C)C)C(N)=O	> 100 µM (inactive)	> 100 µM (inactive)	> 100 µM (inactive)	> 100 µM (inactive)	> 100 µM (inactive)	> 100 µM (inactive)	> 100 µM (inactive)	> 100 µM (inactive)	> 100 µM (inactive)	> 100 µM (inactive)	> 100 µM (inactive)	> 100 µM (inactive)	–	> 100	> 100 µM (inactive)	> 100 µM (inactive)	> 100 µM (inactive)	> 100 µM (inactive)	> 100 µM (inactive)
Cn1c2c(c3ccccc3c1=O)C(=O)c1ccccc1-2	–	32.9 µM (inactive)	76.4 µM (inactive)	> 100 µM (inactive)	80.2 µM (inactive)	> 100 µM (inactive)	21.9 µM (inactive)	72.9 µM (inactive)	> 100 µM (inactive)	17.9 µM (inactive)	> 100 µM (inactive)	63.8 µM (inactive)	77.6 µM (inactive)	9.79	> 100 µM (inactive)	> 100 µM (inactive)	29.9 µM (inactive)	11.7 µM (inactive)	> 100 µM (inactive)
CC(C)=CCOc1cc(NC(=S)c2ccoc2C)ccc1Cl [UC 781]	> 100 µM (inactive)	34.8 µM (inactive)	> 100 µM (inactive)	65.2 µM (inactive)	34.7 µM (inactive)	> 100 µM (inactive)	> 100 µM (inactive)	> 100 µM (inactive)	–	> 100 µM (inactive)	> 100 µM (inactive)	57.4 µM (inactive)	16.3 µM (inactive)	> 100	–	> 100 µM (inactive)	> 100 µM (inactive)	> 100 µM (inactive)	> 100 µM (inactive)
